{
  "source": "paper PMC4627230",
  "about": "“Identification of TAX2 peptide as a new unpredicted anti-cancer agent” (Oncotarget, 2015)",
  "key": {"[1]": {"tested_on": "TSP-1 binding to β1 integrin", "assay": "Co-immunoprecipitation TSP-1 with β1 integrin", "format": "cell-based, human", "conditions": "HUVECs, 100 μM; total protein lysates", "description": "(§1) Protein lysates prepared in ice-cold lysis buffer or conditioned media were subjected to immunoprecipitation assay using the Pierce Co-IP kit (Thermo Fisher Scientific) according to the manufacturer's protocol. 10 μg of antibody (anti CD47, anti-CD36, anti-FGF2, anti-VEGF, anti-β1 integrin and anti-LRP1 heavy chain) or non-specific IgGs were incubated with the delivered resin and covalently coupled. The antibody-coupled resin was incubated with whole HUVEC protein lysate overnight at 4°C under gentle agitation (no cross-linker was used to stabilize protein complexes before HUVEC lysis). Then the resin was washed and the protein complexes bound to the antibody were eluted. Immunoprecipitated protein complexes were solubilized under denaturing and reducing conditions, heated to 100°C for 5 min and analyzed by immunoblotting as described above. […]\n(§2) receptors. HUVECs were treated with TAX2 (100 μM) or scrambled peptide (Ctrl, 100 μM). FGF-2 and VEGF were immunoprecipitated from conditioned media using anti-FGF-2 (clone C-18) and anti-VEGF (clone C-1), respectively. β1 integrin and LRP-1 were immunoprecipitated from total protein lysates using anti-β1 integrin (clone BV7) and anti-LRP-1 heavy chain (clone 8G1), respectively. […] Histogram represents the quantification of relative ligand-bound TSP-1 under TAX2 treatment as compared to control. […]"}, "TSP-1 binding to LRP-1": {"tested_on": "TSP-1 binding to LRP-1", "assay": "Co-immunoprecipitation TSP-1 with LRP-1", "format": "cell-based, human", "conditions": "HUVECs, 100 μM; total protein lysates", "description": "as §1, §2"}, "[2]": {"tested_on": "tumor vascularization of B16F1 melanoma in C57BL/6 mice", "assay": "B16F1 melanoma tumor angiography (μCT) and CD31 immunostaining", "format": "in vivo, mouse", "conditions": "10 mg/kg i.p. days 3, 5, 7", "description": "(§3) For the subcutaneous melanoma tumor model, suspensions of B16F1 cells (2.5 × 10^5 cells in 100 μL RPMI-1640 medium) were subcutaneously injected into the left flank of different randomized series of syngeneic C57BL/6 mice (n = 8–10 per group), as previously described. Intraperitoneal administrations of peptide (10 mg/kg mouse weight) or controls (physiological serum 0.9% (w/v) NaCl or a scrambled peptide) were performed at days 3, 5 and 7. In human pancreatic carcinoma xenograft experiments, 3 × 10^6 MIA PaCa-2 cells/mouse were implanted subcutaneously into the left flank of BALB/C athymic nude mice, then TAX2 intraperitoneal treatments (10 mg/kg mouse weight) were performed 3 times a week during 4 weeks starting at day 10 after tumor cells inoculation. Tumor volume was determined according to v = 0.5 A × B^2, where A denotes the largest dimension of the tumor and B represents the smallest dimension. At days indicated, mice were sacrificed and tumors were surgically extracted and fixed in 4% paraformaldehyde for further morphologic studies and for magnetic resonance imaging, or frozen for immunohistochemistry. Mice were also weighed every 2–3 days and daily checked for any modification in their behavior. Loss of 15% body weight was an indication for euthanasia as well as severe tumor necrosis, as it was sometimes associated with skin ulceration that would result in loss of body fluid and/or infection.\nHistological analysis of formaldehyde-fixed and paraffin-embedded tumors were performed on hemalun, phloxin and saffron (HPS) stained 3 μm thick sections prepared using routine histological methods. To assess tumor-associated microvessel density (MVD), CD31 immunostaining was performed on 5 μm thick cryosections using biotin-labeled secondary antibody and streptavidin-HRP AEC detection system (Microm Microtech, Francheville, France), followed by hematein counter-coloration. Negative controls were done omitting the primary antibody. The necrotic part relative to total tumor surface for each tumor slice as well as MVD were quantified using ImageJ software.\nAnimals were anesthetized by isoflurane (Forene, Abbott France, Rungis, France) inhalation (3% for induction and 1–1.5% for maintenance) and then after placed in a carbon fibers bed. CT images were acquired on a dedicated small animal μCT scanner (Skyscan 1076, Bruker, Kontich, Belgium) while continuously rotating the camera by 180° with the following parameters: 50 kV, 0.5 mm Al filter, 200 μA source current, 35 μm isotropic resolution, 180 ms exposure time, 4 projection images per 0.7° rotation step and a retrospective synchronization. The projections were reconstructed using a filtered backprojection algorithm using Skyscan software (NRecon, Skyscan). For tumor angiography analysis, an alkaline earth-based nanoparticulate contrast agent (Viscover ExiTron nano 12000, Miltenyi Biotec, Paris, France) was injected in the mouse tail vein. Mice were imaged during the next 30 min following injection, a period during which no reduction in contrast was observed. Analysis of reconstructed images and quantification of the vascular network were performed using Amira 5.4.3 software."}, "[3]": {"tested_on": "tumor vasculature of MIA PaCa-2 xenograft in BALB/C nu/nu mice", "assay": "MIA PaCa-2 xenograft vascularization (μCT, dissection)", "format": "in vivo, human tumor xenograft in mouse", "conditions": "10 mg/kg i.p. 3 times a week for 4 weeks", "description": "as §3\nAnimals were anesthetized by isoflurane (Forene, Abbott France, Rungis, France) inhalation (3% for induction and 1–1.5% for maintenance) and then after placed in a carbon fibers bed. CT images were acquired on a dedicated small animal μCT scanner (Skyscan 1076, Bruker, Kontich, Belgium) while continuously rotating the camera by 180° with the following parameters: 50 kV, 0.5 mm Al filter, 200 μA source current, 35 μm isotropic resolution, 180 ms exposure time, 4 projection images per 0.7° rotation step and a retrospective synchronization. […] Analysis of reconstructed images and quantification of the vascular network were performed using Amira 5.4.3 software."}, "[4]": {"conditions": "μCT angiography, representative of n = 5"}},
  "data": [
    {"sequence": "CEVSQLLKGDAC (disulfide) [TAX2, CD47-derived cyclic disulfide dodecapeptide …]", "values": [
      {"measurement": "TSP-1 binding to β1 integrin", "setting": "[1]", "result": "does not affect"},
      {"measurement": "TSP-1 binding to LRP-1", "setting": "TSP-1 binding to LRP-1", "result": "does not affect"},
      {"measurement": "tumor vasculature appearance in 3D reconstruction, day 14", "setting": "[2]", "result": "highly anarchic and discontinuous, only at the tumor surface, surrounding a central hemorrhagic area"},
      {"measurement": "blood vessel size (CD31)", "setting": "[2]; tumor cryosections, n = 6", "result": "diminution in vessel size"},
      {"measurement": "diminution in intratumoral MVD (CD31)", "setting": "[2]; tumor cryosections, n = 6", "result": 60, "unit": "%"},
      {"measurement": "blood vessels within tumors, day 7", "setting": "[2]; [4]", "result": "undetectable"},
      {"measurement": "central vascular network within tumors, day 14", "setting": "[2]; [4]", "result": "still lacking and a wide hemorrhagic area corresponding to the previously described necrotic zone was observed"},
      {"measurement": "intratumoral vascularization, day 10", "setting": "[2]; [4]", "result": "restricted to tumor periphery"},
      {"measurement": "length and diameter of tumor blood vessels", "setting": "[2]; μCT day 14", "result": "significantly decreased both the length and diameter of blood vessels"},
      {"measurement": "reduction in blood vessel mean volume", "setting": "[2]; μCT day 14", "result": 2, "unit": "fold"},
      {"measurement": "tumor vasculature in dissections, day 38", "setting": "[3]", "result": "decreased tumor vasculature"},
      {"measurement": "tumor-associated vascular network in 3D reconstruction, day 38", "setting": "[3]", "result": "strongly inhibit tumor-associated vascular network"},
      {"measurement": "tumor vascularization until day 38", "setting": "[3]; μCT, representative of n = 5", "result": "striking alteration of tumor vascularization"}
    ]}
  ]
}
